Data set [1] is described as follows: sixth experiment: releasable iron in soymilk with 30 ppm ferrous gluconate and sodium isoascorbate additive. Format: in vitro ADME. The conditions noted are these: soymilk with 30 ppm ferrous gluconate. The source says:
However, everyone knows that vitamin C includes a stereoisomer called isoascorbic acid, and the physical and chemical properties of the isoascorbic acid are similar to the vitamin C.

The nature of data set [2]: fifth experiment: releasable iron in soymilk with 30 ppm ferrous gluconate and VC, NaVC, KVC or CaVC additive. Format: in vitro ADME. The following applies: for average iron release rate / average relative release rate: soymilk with 30 ppm ferrous gluconate.
Source text: (§1) In which, “in vitro digestion and dialysis” is used in the experiments for determining the releasable iron in human body after the foods are digested.
Data set [3] in a line: first experiment: in vitro digestion and dialysis of soymilk with ascorbic acid or calcium ascorbate, releasable iron. Format: in vitro ADME. The source says: For improving that, a first experiment in the present invention is done, that is, to respectively add the ascorbic acid and the calcium ascorbate into the soymilk and determine the concentration of the releasable iron thereof. Please refer to following Table (1), which is a statistical table of the releasable iron concentration in the soymilk.

Data set [4] can be described thus: second experiment: releasable iron in soymilk with iron salts added by concentration gradients.
Source text: as §1
[5] abbreviates: sodium isoascorbate 28.6 mg/100 mL.
Where [6] appears, read: sodium isoascorbate 57.1 mg/100 mL.
[7] abbreviates: sodium isoascorbate 85.7 mg/100 mL.
The mark [8] stands for this setting: sodium isoascorbate 114.3 mg/100 mL.
Where [9] appears, read: sodium isoascorbate 142.9 mg/100 mL.
The mark [10] stands for this setting: sodium isoascorbate 171.4 mg/100 mL.
[11] abbreviates: sodium isoascorbate 200.0 mg/100 mL.
The mark [12] stands for this setting: sodium isoascorbate 228.6 mg/100 mL.
Where [13] appears, read: sodium isoascorbate 257.1 mg/100 mL.
[14] abbreviates: sodium isoascorbate 285.7 mg/100 mL.
The mark [15] stands for this setting: sodium isoascorbate 314.3 mg/100 mL.
[16] abbreviates: sodium isoascorbate 342.9 mg/100 mL.
The mark [17] stands for this setting: sodium isoascorbate 371.4 mg/100 mL.
The mark [18] stands for this setting: sodium isoascorbate 400.0 mg/100 mL.
[19] abbreviates: sodium isoascorbate 428.6 mg/100 mL.
Where [20] appears, read: sodium isoascorbate 457.1 mg/100 mL.
The mark [21] stands for this setting: sodium isoascorbate 485.7 mg/100 mL.
Setting [22] is: sodium isoascorbate 514.3 mg/100 mL.
[23] abbreviates: sodium isoascorbate 542.9 mg/100 mL.
The mark [24] stands for this setting: sodium isoascorbate 571.4 mg/100 mL.
The mark [25] stands for this setting: average additive dosage of ascorbic acid ions 25 ppm.
Setting [26] is: average additive dosage of ascorbic acid ions 50 ppm.
Where [27] appears, read: average additive dosage of ascorbic acid ions 75 ppm.
Where [28] appears, read: average additive dosage of ascorbic acid ions 100 ppm.
Setting [29] is: average additive dosage of ascorbic acid ions 125 ppm.
The mark [30] stands for this setting: average additive dosage of ascorbic acid ions 150 ppm.
The mark [31] stands for this setting: average additive dosage of ascorbic acid ions 175 ppm.
Setting [32] is: average additive dosage of ascorbic acid ions 200 ppm.
Where [33] appears, read: average additive dosage of ascorbic acid ions 225 ppm.
[34] abbreviates: average additive dosage of ascorbic acid ions 250 ppm.
[35] abbreviates: average additive dosage of ascorbic acid ions 275 ppm.
The mark [36] stands for this setting: average additive dosage of ascorbic acid ions 300 ppm.
[37] abbreviates: average additive dosage of ascorbic acid ions 325 ppm.
Where [38] appears, read: average additive dosage of ascorbic acid ions 350 ppm.
The mark [39] stands for this setting: average additive dosage of ascorbic acid ions 375 ppm.
Setting [40] is: average additive dosage of ascorbic acid ions 400 ppm.
Setting [41] is: average additive dosage of ascorbic acid ions 425 ppm.
Where [42] appears, read: average additive dosage of ascorbic acid ions 450 ppm.
[43] abbreviates: average additive dosage of ascorbic acid ions 475 ppm.
[44] abbreviates: average additive dosage of ascorbic acid ions 500 ppm.
The mark [45] stands for this setting: soymilk, equivalent additive dosage 175 mg/100 mL.
Setting [46] is: soymilk with 30 ppm iron as ferrous gluconate.

`O=C1O[C@H]([C@H](O)CO)C([O-])=C1O.[Na+]` [sodium isoascorbate]: the iron release rate was found to be 23.37% in data set [1] (setting [5]); 28.20% in data set [1] (setting [6]); 33.67% in data set [1] (setting [7]); 34.23% in data set [1] (setting [8]); 36.17% in data set [1] (setting [9]); 38.73% in data set [1] (setting [10]). Besides, the iron release rate in data set [1] (setting [11]) came to 41.53%; in data set [1] (setting [12]), 41.90%; in data set [1] (setting [13]), 43.20%; in data set [1] (setting [14]), 45.80%; in data set [1] (setting [15]), 46.30%; in data set [1] (setting [16]) it was 47.77%. Besides, the iron release rate in data set [1] (setting [17]) was 48.60%; in data set [1] (setting [18]) it was 48.73%; in data set [1] (setting [19]), 49.30%; in data set [1] (setting [20]), 49.23%; in data set [1] (setting [21]), 49.60%; in data set [1] (setting [22]), 49.90%. Besides, the figures for the iron release rate in data set [1] (setting [23]) and in data set [1] (setting [24]) were 50.90% and 50.37%, respectively. The relative release rate in data set [1] (setting [5]) is 46.37%; in data set [1] (setting [6]), 55.96%; in data set [1] (setting [7]) it was 66.81%; in data set [1] (setting [8]) it was 67.94%; in data set [1] (setting [9]), 71.77%; in data set [1] (setting [10]) it was 76.87%. Besides, the relative release rate worked out at 82.42% in data set [1] (setting [11]); 83.15% in data set [1] (setting [12]); 85.73% in data set [1] (setting [13]); 90.89% in data set [1] (setting [14]); 91.88% in data set [1] (setting [15]); 94.79% in data set [1] (setting [16]). In addition, the relative release rate came to 96.45% in data set [1] (setting [17]); 96.71% in data set [1] (setting [18]); 97.84% in data set [1] (setting [19]); 97.70% in data set [1] (setting [20]); 98.43% in data set [1] (setting [21]); 99.03% in data set [1] (setting [22]). The results for the relative release rate in data set [1] (setting [23]) and in data set [1] (setting [24]) were 101.01% and 99.95%, respectively. Further, the releasable iron concentration in data set [1] (setting [5]) came to 7.01 ppm; in data set [1] (setting [6]), 8.46 ppm; in data set [1] (setting [7]), 10.10 ppm; in data set [1] (setting [8]) it was 10.27 ppm; in data set [1] (setting [9]) it was 10.85 ppm; in data set [1] (setting [10]), 11.62 ppm. For the same compound, the releasable iron concentration in data set [1] (setting [11]) was found to be 12.46 ppm; in data set [1] (setting [12]), 12.57 ppm; in data set [1] (setting [13]) it was 12.96 ppm; in data set [1] (setting [14]), 13.74 ppm; in data set [1] (setting [15]), 13.89 ppm; in data set [1] (setting [16]) it was 14.33 ppm. Besides, the releasable iron concentration in data set [1] (setting [17]) turned out to be 14.58 ppm; in data set [1] (setting [18]), 14.62 ppm; in data set [1] (setting [19]), 14.79 ppm; in data set [1] (setting [20]) it was 14.77 ppm; in data set [1] (setting [21]), 14.88 ppm; in data set [1] (setting [22]), 14.97 ppm. The releasable iron concentration in data set [1] (setting [23]) amounted to 15.27 ppm; in data set [1] (setting [24]), 15.11 ppm.
Regarding `O=C1O[C@H]([C@H](O)CO)C(O)=C1O` [isoascorbic acid ions], the “release promoting rate for iron compared with ascorbic acid ions” value in data set [1] (sodium isoascorbate additive) was “almost the same”.
In the case of `O=C1O[C@H]([C@@H](O)CO)C(O)=C1O` [ascorbic acid ions], the “average iron release rate” value in data set [2] (setting [25]) came to 16.90%; in data set [2] (setting [26]), 23.17%; in data set [2] (setting [27]) it was 27.88%; in data set [2] (setting [28]), 32.08%; in data set [2] (setting [29]), 33.35%; in data set [2] (setting [30]) it was 34.92%. The “average iron release rate” value turned out to be 35.85% in data set [2] (setting [31]); 36.86% in data set [2] (setting [32]); 38.23% in data set [2] (setting [33]); 39.40% in data set [2] (setting [34]); 40.57% in data set [2] (setting [35]); 42.29% in data set [2] (setting [36]). For the same compound, the “average iron release rate” value is reported as 43.63% in data set [2] (setting [37]); 44.67% in data set [2] (setting [38]); 45.61% in data set [2] (setting [39]); 46.28% in data set [2] (setting [40]); 47.22% in data set [2] (setting [41]); 47.86% in data set [2] (setting [42]). Moreover, the “average iron release rate” value in data set [2] (setting [43]) is given as 48.99%; in data set [2] (setting [44]) it was 50.01%. Besides, the “average relative release rate” value in data set [2] (setting [25]) was 33.55%; in data set [2] (setting [26]), 45.97%; in data set [2] (setting [27]), 55.33%; in data set [2] (setting [28]), 63.67%; in data set [2] (setting [29]), 66.18%; in data set [2] (setting [30]) it was 69.30%. Besides, the “average relative release rate” value stood at 71.14% in data set [2] (setting [31]); 73.15% in data set [2] (setting [32]); 75.86% in data set [2] (setting [33]); 78.18% in data set [2] (setting [34]); 80.51% in data set [2] (setting [35]); 83.93% in data set [2] (setting [36]). Further, the “average relative release rate” value in data set [2] (setting [37]) was 86.59%; in data set [2] (setting [38]), 88.66%; in data set [2] (setting [39]), 90.52%; in data set [2] (setting [40]), 91.85%; in data set [2] (setting [41]) it was 93.72%; in data set [2] (setting [42]), 94.99%. The figures for the “average relative release rate” value in data set [2] (setting [43]) and in data set [2] (setting [44]) were 97.23% and 99.24%, respectively.
With calcium ascorbate [CaVC], in data set [3] (setting [45]), the iron release rate came to 48.75% and the releasable iron turned out to be 1.95 ppm. Further, the “relative release rate” value in data set [3] (soymilk, equivalent additive dosage 175 mg/100 mL, relative to ferrous sulfate aqueous solution) came out at 96.75%.
Consider ferrous gluconate, for which, in data set [2] (setting [46]), the “releasable iron concentration before adding the ascorbic acid iron” value is reported as 2.08 ppm. In data set [2] (setting [46]), the “the most effective additive dosage for ascorbic acid iron” value is listed as 50 mg/100 ml. Besides, the “release promoting rate of iron” value in data set [2] (soymilk with 30 ppm iron as ferrous gluconate, after/before adding the ascorbic acid iron) is 458%. Also, in data set [2] (soymilk with 30 ppm iron as ferrous gluconate, at the most effective additive dosage 50), the “releasable iron concentration after adding the ascorbic acid iron” value stood at 9.53 ppm. Further, the “concentration of releasable iron” value in data set [4] (additive dosage of iron 10 ppm) is given as 1.61 ppm; in data set [4] (additive dosage of iron 20 ppm), 2.05 ppm; in data set [4] (additive dosage of iron 30 ppm), 2.08 ppm; in data set [4] (additive dosage of iron 40 ppm), 2.68 ppm; in data set [4] (additive dosage of iron 50 ppm), 3.15 ppm; in data set [4] (additive dosage of iron 60 ppm), 4.06 ppm. The “concentration of releasable iron” value in data set [4] (additive dosage of iron 70 ppm) was found to be 3.98 ppm; in data set [4] (additive dosage of iron 75 ppm), 3.87 ppm. Also, the initially inhibiting concentration in data set [4] (point where releasable iron starts to rise with additive dosage) stood at 30 ppm.
In the case of `O=C1O[C@H]([C@@H](O)CO)C(O)=C1O` [VC, ascorbic acid], in data set [3] (75 mg/100 mL), the iron release rate is reported as 51.75%, the “relative release rate” value was found to be 102.7% and the releasable iron came out at 2.07 ppm. In data set [3] (175 mg/100 mL), the iron release rate is reported as 78.75%, the “relative release rate” value amounted to 156.28% and the releasable iron is recorded as 3.15 ppm.
